For data set [1], the target named is T1, GAL4 DBD (1-147)-CfEcR(DEF)/VP16AD-βRXREF-LmUSPEF (Choristoneura fumiferana, UniProt O77240).
T1 sequence (O77240 191-513): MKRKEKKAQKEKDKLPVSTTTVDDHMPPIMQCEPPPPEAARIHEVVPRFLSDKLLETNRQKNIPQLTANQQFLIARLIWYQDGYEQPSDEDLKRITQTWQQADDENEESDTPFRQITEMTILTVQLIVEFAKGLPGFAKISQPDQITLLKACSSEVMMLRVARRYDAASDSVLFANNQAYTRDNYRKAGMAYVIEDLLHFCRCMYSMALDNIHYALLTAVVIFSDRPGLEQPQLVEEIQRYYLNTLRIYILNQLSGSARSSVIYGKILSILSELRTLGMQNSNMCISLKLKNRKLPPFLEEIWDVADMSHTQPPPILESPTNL
T1 sequence (P28702 296-455 partner limits assumed): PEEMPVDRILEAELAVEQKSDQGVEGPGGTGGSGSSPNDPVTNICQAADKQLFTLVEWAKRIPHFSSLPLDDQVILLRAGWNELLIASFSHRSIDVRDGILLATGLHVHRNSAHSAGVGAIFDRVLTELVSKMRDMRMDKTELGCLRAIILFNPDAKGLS
The data set is described as follows: 27-63 assay: luciferase reporter gene expression in stable CHO cell clone 27-63. The settings on record: for 27-63 Rel Max FI: maximum fold induction at any concentration relative to that of GS-E ligand; for CC50: read-out: 27-63 LC50, average, dose response, three-parameter logistic model. The source says: GAL4 DBD (1-147)-CfEcR(DEF)/VP16AD-βRXREF-LmUSPEF: The wild-type D, E, and F domains from spruce budworm Choristoneura fumiferana EcR (“CfEcR-DEF”; SEQ ID NO: 1) were fused to a GAL4 DNA binding domain (“Gal4 DBD1-147”; nucleotides 31 to 471 of SEQ ID NO: 2) and placed under the control of a phosphoglycerate kinase promoter (“PGK”; SEQ ID NO: 3). Helices 1 through 8 of the EF domains from Homo sapiens RXRβ and helices 9 through 12 of the EF domains of Locusta migratoria Ultraspiracle Protein (“HsRXRβ-EF-LmUSP-EF”; SEQ ID NO: 4) were fused to the transactivation domain from VP16 (“VP16AD”; SEQ ID NO: 5) and placed under the control of an elongation factor-1α promoter (“EF-1α”; SEQ ID NO: 6). Five consensus GAL4 response element binding sites (“5XGAL4RE”; comprising 5 copies of a GAL4RE comprising SEQ ID NO: 7) were fused to a synthetic TATA minimal promoter (SEQ ID NO: 8) and placed upstream of the luciferase reporter gene (SEQ ID NO: 9).
CHO cells were transiently transfected with transcription cassettes for GAL4 DBD (1-147) CfEcR(DEF) and for VP16AD βRXREF-LmUSPEF controlled by ubiquitously active cellular promoters (PGK and EF-1α, respectively) on a single plasmid. Stably transfected cells were selected by Zeocin resistance. Individually isolated CHO cell clones were transiently transfected with a GAL4 RE-luciferase reporter (pFR Luc). 27-63 clone was selected using Hygromycin.
Cells were trypsinized and diluted to a concentration of 2.5×10^4 cells mL. 100 μL of cell suspension was placed in each well of a 96 well plate and incubated at 37° C. under 5% CO2 for 24 h. Ligand stock solutions were prepared in DMSO and diluted 300 fold for all treatments. Dose response testing consisted of 8 concentrations ranging from 33 μM to 0.01 μM.
Luciferase reporter gene expression was measured 48 h after cell treatment using Bright-Glo™ Luciferase Assay System from Promega (E2650). Luminescence was detected at room temperature using a Dynex MLX microtiter plate luminometer.
Fold inductions were calculated from single dose testing by dividing relative light units (RLU) in ligand treated cells by RLU in DMSO treated cells. BC50s were calculated from dose response data using a three-parameter logistic model.
(A reporter such as luciferase makes a cellular process visible.)

Data set [2] addresses T2, GAL4 DBD-CfEcR(DEF)/VP16AD-MmRXRE (Choristoneura fumiferana, UniProt O77240).
T2 sequence (O77240 1-513): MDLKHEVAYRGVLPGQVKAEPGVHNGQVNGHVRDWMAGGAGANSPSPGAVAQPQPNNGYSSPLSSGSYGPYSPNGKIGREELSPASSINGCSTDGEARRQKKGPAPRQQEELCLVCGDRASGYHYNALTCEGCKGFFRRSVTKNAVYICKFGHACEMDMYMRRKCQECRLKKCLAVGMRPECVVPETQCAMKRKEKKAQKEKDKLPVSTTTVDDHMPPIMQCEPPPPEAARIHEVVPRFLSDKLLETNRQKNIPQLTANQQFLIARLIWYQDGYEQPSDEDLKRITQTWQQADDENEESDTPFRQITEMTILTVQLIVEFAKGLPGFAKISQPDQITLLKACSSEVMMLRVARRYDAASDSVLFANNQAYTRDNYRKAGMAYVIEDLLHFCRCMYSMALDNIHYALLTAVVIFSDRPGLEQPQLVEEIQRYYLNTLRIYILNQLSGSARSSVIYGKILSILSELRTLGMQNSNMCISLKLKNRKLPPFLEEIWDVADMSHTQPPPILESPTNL
The data set is described as follows: cell-based. The essentials: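 Stable CHO clone 13B3 expressing GAL4 DBD-CfEcR(DEF) and VP16AD-mouse RXR(DE) with GAL4 RE-luciferase reporter. Ligands tested at 8 concentrations, 33–0.01 μM; luciferase read 48 h after treatment. Fold induction versus DMSO; BC50 from three-parameter logistic fit.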

Data set [3] concerns the target T3, Bombyx mori EcR (VP16 fusion, switch construct CVBE) with 6XEcRE LacZ reporter (Bombyx mori, UniProt P49881).
T3 construct: expressed in transfected cells; host or cells: Human 293 kidney (HEK-293) cells, retrovirally infected, clone Z3
T3 sequence (P49881 86-606 limits assumed): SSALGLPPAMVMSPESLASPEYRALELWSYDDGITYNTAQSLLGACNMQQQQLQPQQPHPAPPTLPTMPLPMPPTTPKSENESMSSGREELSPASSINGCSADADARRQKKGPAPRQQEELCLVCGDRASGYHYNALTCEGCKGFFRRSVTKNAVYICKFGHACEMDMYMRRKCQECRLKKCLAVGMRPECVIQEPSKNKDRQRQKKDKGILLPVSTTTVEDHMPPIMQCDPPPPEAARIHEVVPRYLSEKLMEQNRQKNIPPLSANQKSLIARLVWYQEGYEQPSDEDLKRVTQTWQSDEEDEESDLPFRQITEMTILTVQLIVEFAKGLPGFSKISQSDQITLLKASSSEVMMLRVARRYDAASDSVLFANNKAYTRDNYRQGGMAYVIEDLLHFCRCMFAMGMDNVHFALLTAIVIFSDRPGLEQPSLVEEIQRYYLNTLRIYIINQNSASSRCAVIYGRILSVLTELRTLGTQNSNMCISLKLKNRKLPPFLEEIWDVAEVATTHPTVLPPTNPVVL
T3 sequence (P19793 1-462 partner): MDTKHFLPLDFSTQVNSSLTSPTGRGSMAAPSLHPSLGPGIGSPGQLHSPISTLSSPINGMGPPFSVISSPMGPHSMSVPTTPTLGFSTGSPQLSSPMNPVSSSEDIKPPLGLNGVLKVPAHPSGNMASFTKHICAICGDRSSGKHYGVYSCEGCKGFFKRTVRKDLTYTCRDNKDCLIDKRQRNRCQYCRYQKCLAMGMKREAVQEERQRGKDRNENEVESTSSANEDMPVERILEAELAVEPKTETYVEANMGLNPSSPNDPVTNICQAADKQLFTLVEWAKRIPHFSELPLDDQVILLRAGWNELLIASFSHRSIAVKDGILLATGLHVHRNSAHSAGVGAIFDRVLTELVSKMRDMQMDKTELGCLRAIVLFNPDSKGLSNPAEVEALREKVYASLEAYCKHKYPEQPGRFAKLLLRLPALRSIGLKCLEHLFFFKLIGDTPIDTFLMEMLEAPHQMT
Nature of the data set: Z3 assay: β-galactosidase (LacZ) reporter gene fold induction in stably transformed human 293 kidney cells (clone Z3). The format is cell-based. The settings on record: single dose 33 μM; ligand treated / DMSO treated cells. The essentials: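 β-Galactosidase read 48 h after dosing by bioluminescent assay; ligand added at 33 μM with DMSO held at 0.03%. The cells are stable 293 clone Z3, expressing a CMV-driven VP16 fusion of Bombyx mori EcR residues 26-546 plus six EcRE copies upstream of lacZ.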

The target of data set [4] is T4, Gal4 DBD/AaEcR (DEF) with VP16-βRXR-E (Aedes aegypti, UniProt P49880).
T4 construct: The wildtype D, E, and F domains from mosquito Aedes aegypti EcR (“AaEcR-DEF”); expressed in transfected cells; host or cells: 3T3 cells, transient transfection (Superfect)
T4 sequence (P28704 286-520 A311G/G315S/G445S/I449V): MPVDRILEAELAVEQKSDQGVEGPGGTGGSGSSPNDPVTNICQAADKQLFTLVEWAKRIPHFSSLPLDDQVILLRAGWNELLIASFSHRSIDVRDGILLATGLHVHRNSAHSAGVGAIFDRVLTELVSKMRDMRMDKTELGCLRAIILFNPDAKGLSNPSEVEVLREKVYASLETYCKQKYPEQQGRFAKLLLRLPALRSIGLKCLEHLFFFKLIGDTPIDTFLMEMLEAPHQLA
T4 sequence (P49880 405-776): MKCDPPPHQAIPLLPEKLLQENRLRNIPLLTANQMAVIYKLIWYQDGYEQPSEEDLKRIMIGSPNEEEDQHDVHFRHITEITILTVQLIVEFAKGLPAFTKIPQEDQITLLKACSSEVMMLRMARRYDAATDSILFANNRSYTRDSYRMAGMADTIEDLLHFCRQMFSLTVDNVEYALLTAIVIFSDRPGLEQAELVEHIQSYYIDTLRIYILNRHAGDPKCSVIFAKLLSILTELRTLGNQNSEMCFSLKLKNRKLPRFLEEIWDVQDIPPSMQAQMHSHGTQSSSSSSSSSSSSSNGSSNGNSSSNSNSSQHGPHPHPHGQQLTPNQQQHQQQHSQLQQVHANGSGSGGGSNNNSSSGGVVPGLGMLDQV
The data set is described as follows: cell-based. It counts as cell-based. The settings on record: for Fold Induction Average, AA_3T3 Assay (33 μM): single dose 33 μM, RLU ligand treated / RLU DMSO treated cells; for LC50 (half-maximal ligand concentration for reporter induction): average, dose response 33 μM to 0.01 μM, three-parameter logistic model, read-out: AA_3T3 LC50; for AA_3T3 Rel Max FI: maximum fold induction at any concentration relative to that of GS-E ligand. The method, then: 3T3 cells were trypsinized and plated at 2.5×10^3 cells/well on a 96-well plate. After incubation for 24 h at 37° C. under 5% CO2, cells were transfected with the Gal4 DBD/AaEcR (DEF) gene expression cassette and the reporter plasmid, pFRLuc, containing a 5XGAL4 response element and the firefly luciferase gene in serum free media using Superfect (Qiagen). After transfection for 4 h at 37° C., the cells were treated with ligand in serum media. […] Single dose testing was performed at 33 μM.

The text below walks through data of patent publication US8129355B2, “Ketone ligands for modulating the expression of exogenous genes via an ecdysone receptor complex” (priority 2002, dated 2012).

pEC50: −log10 of the molar value.

On to `COc1cccc(C(=O)NC(C)(C(=O)c2ccc(F)c(C)c2)C(C)C)c1C` (centres unmarked) [Example 56], for which, in data set [1], the “27-63 Rel Max FI” value is 0.06 and the CC50 is above 33 µM. Further, in data set [2], the negative logarithm of the EC50 (pEC50) (as a rule, −log10 of the EC50, conventionally taken in molar units) was below 4.48. For the same molecule, the “13B3 Rel Max FI” value in data set [2] (maximum fold induction at any concentration relative to that of GS-E ligand) is listed as 0.00.
On to `COc1cccc(C(=O)NC(C)(C(=O)c2cc(C)cc(C)c2)c2ccc(F)cc2)c1C` (centres unmarked) [Example 73], for which the “Fold Induction Average, Z3 Assay (33 μM)” value in data set [3] is reported as 4. In addition, in data set [4], the “Fold Induction Average, AA_3T3 Assay (33 μM)” value turned out to be 1.
For `Cc1cc(C)cc(C(=O)C2(NC(=O)c3ccccc3C)CCCC2)c1` [Example 89], in data set [1], the “27-63 Rel Max FI” value is listed as 0.07 and the CC50 was above 33 µM. Further, in data set [4], the LC50 (half-maximal ligand concentration for reporter induction) was above 33 µM; the “AA_3T3 Rel Max FI” value came out at 0.00; the “Fold Induction Average, AA_3T3 Assay (33 μM)” value worked out at 78.
On to `CCC(=O)C(C)(C)NC(=O)c1ccccc1C` [Example 124], for which the “Fold Induction Average, AA_3T3 Assay (33 μM)” value in data set [4] is reported as 2.
`CCC(=O)C(C)(C)NC(=O)c1ccc(CC)cc1` [Example 125]: in data set [4], the “Fold Induction Average, AA_3T3 Assay (33 μM)” value came to 1.
With `CCC(=O)C1(NC(=O)c2ccccc2C)CCCC1` [Example 132], the “Fold Induction Average, AA_3T3 Assay (33 μM)” value in data set [4] was 1.
For `COc1cccc(C(=O)NC2(C(=O)c3cc(C)cc(C)c3)CCCC2)c1` [Example 137], in data set [1], the “27-63 Rel Max FI” value turned out to be 0.21 and the CC50 is above 33 µM. For the same molecule, in data set [4], the LC50 (half-maximal ligand concentration for reporter induction) was above 33 µM; the “AA_3T3 Rel Max FI” value is given as 0.01; the “Fold Induction Average, AA_3T3 Assay (33 μM)” value is given as 115.
Consider `CCc1ccc(C(=O)NC2(C(=O)c3cc(C)cc(C)c3)CCCC2)cc1` [Example 138], for which, in data set [1], the “27-63 Rel Max FI” value is 0.75 and the CC50 amounted to 3.59 µM. In data set [4], the LC50 (half-maximal ligand concentration for reporter induction) was around 4.7 µM; the “AA_3T3 Rel Max FI” value turned out to be 0.22; the “Fold Induction Average, AA_3T3 Assay (33 μM)” value came to 2134.
With `COc1cccc(C(=O)NC2(C(=O)c3cc(C)cc(C)c3)CCN(C(=O)OC(C)C)CC2)c1C` [Example 158], the “Fold Induction Average, Z3 Assay (33 μM)” value in data set [3] came to 4. The “Fold Induction Average, AA_3T3 Assay (33 μM)” value in data set [4] is listed as 1.
